Test system: HCV replicon, genotype-1a variant with glutamine 30 changed to glutamate in the NS5A protein
Test: microbe, parasite or virus in culture
Format: cell-based, HCV genotype 1a
Details: HCV replicon genotype 1a Q30E (Q→E) variant; test compound titrated with an NS5A-targeting compound (BMS-790052 fixed at 200 nM); ranking of synergist activity
From the text: The NS5A synergistic inhibitory effect of test compounds can be determined using various amounts of an NS5A-targeting compound with titration of a second compound of interest. […] In one embodiment, the HCV genotype strain can be genotype 1a containing a change at amino acid 30 of the NS5A protein consisting of glutamine to glutamate. The test compound can be chosen from compounds listed above or from others present in the literature.

| SMILES | Fold-Synergistic 1a (Q30E) |
| --- | --- |
| CCN(CC(F)(F)F)C(=O)C(=O)N[C@H](c1nc(-c2ccc(-c3ccc(-c4c[nH]c([C@@H](NC(=O)C(=O)N(CC)CC(F)(F)F)C5CC5)n4)cc3)cc2)c[nH]1)C1CC1 [Compound L-35] | >100 fold |
| CC(C)(C)[C@H](NC(=O)C1(CO)CCCCO1)c1nc(-c2ccc(-c3ccc(-c4c[nH]c([C@@H](NC(=O)C5(CO)CCCCO5)C(C)(C)C)n4)cc3)cc2)c[nH]1 (stereo partly drawn) [Compound P-177] | >100 fold |
| Cc1cc(-c2ccc(-c3c[nH]c([C@@H](NC(=O)C4(C)CCC(F)(F)CC4)C(C)C)n3)cc2)ccc1-c1c[nH]c([C@@H](NC(=O)C2(C)CCC(F)(F)CC2)C(C)C)n1 [Compound N-84] | >100 fold |
| CC1([C@H](NC(=O)[C@@]2(C)CCCCO2)c2nc(-c3ccc(-c4ccc(-c5c[nH]c([C@@H](NC(=O)[C@@]6(C)CCCCO6)C6(C)CC6)n5)cc4)cc3)c[nH]2)CC1 [Compound P-187] | >100 fold |
| CC(C)N(C(=O)C(=O)N[C@H](c1nc(-c2ccc(-c3ccc(-c4c[nH]c([C@@H](NC(=O)C(=O)N(C(C)C)C5CC5)C(C)(C)C)n4)cc3)cc2)c[nH]1)C(C)(C)C)C1CC1 [Compound W-49] | >100 fold |
| CC(C)(C)OC(=O)N1CC(C)(C)OC[C@H]1C(=O)N[C@H](c1nc(-c2ccc(-c3ccc(-c4c[nH]c([C@@H](NC(=O)[C@@H]5COC(C)(C)CN5C(=O)OC(C)(C)C)C(C)(C)C)n4)cc3)cc2)c[nH]1)C(C)(C)C [Compound L-60] | >100 fold |
| CC1([C@H](NC(=O)C2CC(=O)C2)c2nc(-c3ccc(-c4ccc(-c5c[nH]c([C@@H](NC(=O)C6CC(=O)C6)C6(C)CC6)n5)cc4)cc3)c[nH]2)CC1 [Compound W-174] | >100 fold |
| COc1ccc2c(C(=O)N3CCC[C@H]3c3ncc(-c4ccc(-c5ccc(-c6cnc([C@@H]7CCCN7C(=O)c7nccc8cc(OC)ccc78)[nH]6)cc5)cc4)[nH]3)nccc2c1 [Compound S-198] | >100 fold |
| CC(C)C(N[S+]([O-])C(C)(C)C)c1ncc(-c2ccc(-c3ccc(-c4cnc([C@@H](N[S+]([O-])C(C)(C)C)C(C)C)[nH]4)cc3)cc2)[nH]1 (single isomer, unassigned) [Compound Y-61] | <10 fold |
| CC(C)C(c1ncc(-c2ccc(-c3ccc(-c4cnc(C(C(C)C)N5CCCCC5=O)[nH]4)cc3)cc2)[nH]1)N1CCCCC1=O (stereo not drawn) [Compound P-52] | >10 fold |
| COC(=O)N[C@H](C(=O)NC1(c2nc(-c3ccc(-c4ccc(-c5c[nH]c(C6(NC(=O)[C@@H](NC(=O)OC)C(C)C)CCCCC6)n5)cc4)cc3)c[nH]2)CCCCC1)C(C)C [Compound N-23] | <10 fold |
| O=C(CCn1ccc2ccccc21)N1CCC[C@H]1c1ncc(-c2ccc(-c3ccc(-c4cnc([C@@H]5CCCN5C(=O)CCn5ccc6ccccc65)[nH]4)cc3)cc2)[nH]1 [Compound S-151] | >10 fold |
| O=C(N[C@H](c1nc(-c2ccc(-c3ccc(-c4c[nH]c([C@@H](NC(=O)C5CCC(F)(F)CC5)C5CC5)n4)cc3)cc2)c[nH]1)C1CC1)C1CCC(F)(F)CC1 [Compound L-90] | >100 fold |
| C[C@H]1CCN(C(=O)C(=O)N2CCC(F)(F)CC2)C1c1nc(-c2ccc(-c3ccc(-c4c[nH]c([C@@H]5[C@@H](C)CCN5C(=O)C(=O)N5CCC(F)(F)CC5)n4)cc3)cc2)c[nH]1 (stereo partly drawn) [Compound W-186] | >100 fold |
| O=C(C1CCCCC1)N1CCC[C@H]1c1ncc(-c2ccc(-c3ccc(-c4cnc([C@@H]5CCCN5C(=O)C5CCCCC5)[nH]4)cc3)cc2)[nH]1 [Compound S-167] | <10 fold |
| CC(C)(C)[C@H](NC(=O)C1(C2(O)CCOCC2)CCC1)c1ncc(-c2ccc(-c3ccc(-c4cnc([C@@H](NC(=O)C5(C6(O)CCOCC6)CCC5)C(C)(C)C)[nH]4)cc3)cc2)[nH]1 [Compound B84] | >100 fold |
| CC(C)[C@H](NC(=O)c1cc(Cl)ccc1F)c1nc(-c2ccc3c(c2)CCc2cc(-c4c[nH]c([C@@H](NC(=O)c5cc(Cl)ccc5F)C(C)C)n4)ccc2-3)c[nH]1 [Compound N-76] | >100 fold |
| CC(C)(C)[C@H](NC(=O)C1CCOC1)c1nc(-c2ccc(-c3ccc(-c4c[nH]c([C@@H](NC(=O)C5CCOC5)C(C)(C)C)n4)cc3)cc2)c[nH]1 (stereo partly drawn) [Compound W-129] | >10 fold |
| CC(C)(C)[C@H](NC(=O)c1ccccc1O)c1nc(-c2ccc(-c3ccc(-c4c[nH]c([C@@H](NC(=O)c5ccccc5O)C(C)(C)C)n4)cc3)cc2)c[nH]1 [Compound Y-72] | >100 fold |
| COCCOC(=O)N1C[C@H](F)C[C@H]1C(=O)N[C@H](c1nc(-c2ccc(-c3ccc(-c4c[nH]c([C@@H](NC(=O)[C@@H]5C[C@@H](F)CN5C(=O)OCCOC)C(C)(C)C)n4)cc3)cc2)c[nH]1)C(C)(C)C [Compound W-110] | >100 fold |

| SMILES | Fold-Synergistic 1a (Q30E) |
| --- | --- |
| O=C(c1cc2ccccc2o1)N1CCC[C@H]1c1ncc(-c2ccc(-c3ccc(-c4cnc([C@@H]5CCCN5C(=O)c5cc6ccccc6o5)[nH]4)cc3)cc2)[nH]1 [Compound S-122] | >10 fold |
| CC(C)[C@H](NC(=O)C(C)(C)OCC(F)F)c1nc(-c2ccc(-c3ccc(-c4c[nH]c([C@@H](NC(=O)C(C)(C)OCC(F)F)C(C)C)n4)c(F)c3)cc2)c[nH]1 [Compound N-91] | >100 fold |
| COC(C)(C(=O)N[C@H](c1nc(-c2ccc(-c3ccc(-c4c[nH]c([C@@H](NC(=O)C(C)(OC)C5(O)CCC(F)(F)CC5)C(C)(C)C)n4)cc3)cc2)c[nH]1)C(C)(C)C)C1(O)CCC(F)(F)CC1 (stereo partly drawn) [Compound P-156] | >100 fold |
| CC(C)(C)[C@H](NC(=O)C1(CO)CCCCO1)c1nc(-c2ccc(-c3ccc(-c4c[nH]c([C@@H](NC(=O)C5(CO)CCCCO5)C(C)(C)C)n4)cc3)cc2)c[nH]1 (stereo partly drawn) [Compound P-180] | >100 fold |
| CC(C)(C)OC(=O)N[C@H]1CCC[C@@H]1C(=O)N[C@H](c1nc(-c2ccc(-c3ccc(-c4c[nH]c([C@@H](NC(=O)[C@H]5CCC[C@@H]5NC(=O)OC(C)(C)C)C(C)(C)C)n4)cc3)cc2)c[nH]1)C(C)(C)C [Compound W-9] | >100 fold |
| O=C(CC1CC1)N1CCC[C@H]1c1ncc(-c2ccc(-c3ccc(-c4cnc([C@@H]5CCCN5C(=O)CC5CC5)[nH]4)cc3)cc2)[nH]1 [Compound S-110] | <10 fold |
| CC(C)(C)[C@H](O)C(=O)N[C@H](c1nc(-c2ccc(-c3ccc(-c4c[nH]c([C@@H](NC(=O)[C@@H](O)C(C)(C)C)C(C)(C)C)n4)cc3)cc2)c[nH]1)C(C)(C)C [Compound L-76] | >100 fold |
| CC(C)(C)[C@H](NC(=O)C1(C)CC1(F)F)c1nc(-c2ccc(-c3ccc(-c4c[nH]c([C@@H](NC(=O)C5(C)CC5(F)F)C(C)(C)C)n4)cc3)cc2)c[nH]1 (stereo partly drawn) [Compound L-58a] | >100 fold |
| CC(C)(C)[C@H](NC(=O)C1(CO)CCCCO1)c1nc(-c2ccc(-c3ccc(-c4c[nH]c([C@@H](NC(=O)C5(CO)CCCCO5)C(C)(C)C)n4)cc3)cc2)c[nH]1 (stereo partly drawn) [Compound P-181] | >100 fold |
| CC(C)(NC1CCCCC1)C(=O)N[C@H](c1nc(-c2ccc(-c3ccc(-c4c[nH]c([C@@H](NC(=O)C(C)(C)NC5CCCCC5)C(C)(C)C)n4)cc3)cc2)c[nH]1)C(C)(C)C [Compound P-174] | >100 fold |
| CC(C)(C)[C@H](NC(=O)C1(C(=O)N2CCC(F)(F)CC2)CC1)c1nc(-c2ccc(-c3ccc(-c4c[nH]c([C@@H](NC(=O)C5(C(=O)N6CCC(F)(F)CC6)CC5)C(C)(C)C)n4)cc3)cc2)c[nH]1 [Compound P-148] | >100 fold |
| O=C(C(c1ccccc1)c1ccccc1)N1CCC[C@H]1c1ncc(-c2ccc(-c3ccc(-c4cnc([C@@H]5CCCN5C(=O)C(c5ccccc5)c5ccccc5)[nH]4)cc3)cc2)[nH]1 [Compound S-146] | <10 fold |
| CC(C)(C)[C@H](NC(=O)C1(C)OCCCC1(F)F)c1nc(-c2ccc(-c3ccc(-c4c[nH]c([C@@H](NC(=O)C5(C)OCCCC5(F)F)C(C)(C)C)n4)cc3)cc2)c[nH]1 (stereo partly drawn) [Compound P-162] | >100 fold |
| CC1([C@H](NC(=O)C(=O)N2CCCCCC2)c2nc(-c3ccc(-c4ccc(-c5c[nH]c([C@@H](NC(=O)C(=O)N6CCCCCC6)C6(C)CC6)n5)cc4)cc3)c[nH]2)CC1 [Compound W-57] | >100 fold |
| C[C@@H](OC(=O)NC1(C(=O)N[C@H](c2nc(-c3ccc(-c4ccc(-c5c[nH]c([C@@H](NC(=O)C6(NC(=O)O[C@H](C)C(F)(F)F)CC6)C6(C)CC6)n5)cc4)cc3)c[nH]2)C2(C)CC2)CC1)C(F)(F)F [Compound L-42] | >100 fold |
| C[C@H](C(=O)OC(C)(C)C)[C@@H](C)C(=O)N[C@H](c1nc(-c2ccc(-c3ccc(-c4c[nH]c([C@@H](NC(=O)[C@H](C)[C@H](C)C(=O)OC(C)(C)C)C(C)(C)C)n4)cc3)cc2)c[nH]1)C(C)(C)C [Compound S-292] | >100 fold |
| CC(C)(C)[C@H](NC(=O)C1CCC(=C(F)F)CC1)c1nc(-c2ccc(-c3ccc(-c4c[nH]c([C@@H](NC(=O)C5CCC(=C(F)F)CC5)C(C)(C)C)n4)cc3)cc2)c[nH]1 (stereo partly drawn) [Compound N-121] | >100 fold |
| COC(=O)N[C@@H](C(=O)NC1(c2nc(-c3ccc(-c4ccc(-c5c[nH]c(C6(NC(=O)[C@H](NC(=O)OC)C(C)C)CCCCC6)n5)cc4)cc3)c[nH]2)CCCCC1)C(C)C [Compound N-22] | >10 fold |
| CN(C(=O)OC(C)(C)C)C1(C(=O)N[C@H](c2nc(-c3ccc(-c4ccc(-c5c[nH]c([C@@H](NC(=O)C6(N(C)C(=O)OC(C)(C)C)CCC6)C(C)(C)C)n5)cc4)cc3)c[nH]2)C(C)(C)C)CCC1 [Compound L-14] | >100 fold |
